Test [1] relates to Helicobacter pylori. The test can be described thus: Antibacterial activity against Helicobacter pylori SS1 infected in Mongolian gerbils assessed as bacterial density in mucus in central mucus layer at 20 uM, ip administered as single dose through dialysis measured after 90 mins post last dose (reference value: 90+/-60 bacteria per nl of mucus). In kind it is functional.
Test [2] concerns Helicobacter pylori. The test can be described thus: Antibacterial activity against Helicobacter pylori SS1 infected in Mongolian gerbils assessed as bacterial disorientation in central mucus layer at 0.25 mg, ip administered as two doses in 24 hrs dosing interval measured after 90 mins post last dose. In kind it is functional, organism-based.
The subject of test [3] is Helicobacter pylori. Put plainly: Antibacterial activity against Helicobacter pylori SS1 infected in Mongolian gerbils assessed as bacterial density in mucus in luminal mucus layer at 0.25 mg, ip followed by second dose administered as solvent in 24 hrs dosing interval measured after 90 mins post last dose (reference value: 60+/-50 bacteria per nl of mucus). In kind it is functional.

SMILES strings stand for the structures. Activity calls are given as the source filed them. The calls are words filed in the database; no cut-off is given here.

Take `COc1ccc2[nH]c([S+]([O-])Cc3ncc(C)c(OC)c3C)nc2c1` (stereo not drawn) [OMEPRAZOLE]: the Activity came to 70 nL⁻¹ with Helicobacter pylori [1] and 50 nL⁻¹ with Helicobacter pylori [3]. Besides, in the test with Helicobacter pylori [2], the result was inactive.

For the origin of these results see ChEMBL document CHEMBL1649554, “Specific therapeutic schemes of omeprazole affect the orientation of Helicobacter pylori” (Antimicrob Agents Chemother, 2009).
